Source: patent US7365096B2, “Methods for selectively inhibiting Janus tyrosine kinase 3 (Jak3)” (Board of Regents, The University of Texas System, priority 2002, dated 2008)
“Also recorded” adds a separate entry of the source. Read-outs that look alike come from different tables or passages of the source.

Legend:
[1] = tested on: γc/Jak3-dependent PHA-activated human T cells; assay: Proliferation of PHA-activated human T cells ([3H]-thymidine); type: cell-based; conditions: for IC50: Homo sapiens
Protocol: (§1) Cell culture and treatment. The rat T-cell line Nb2-11c, originally developed by Dr. Peter Gout (Vancouver, Canada), was grown in RPMI-1640 with 10% fetal calf serum (Intergen, cat. no. 1020-90), 2 mM L-glutamine, 5 mM HEPES, pH 7.3, and penicillin-streptomycin (50 IU/ml and 50 μg/ml, respectively), at 37° C./5% CO2. Freshly explanted normal human T lymphocytes purified by isocentrifugation (Ficoll®; EM Science, Gibbstown, N.J.) were phytohemagglutinin (PHA)-activated for 72 hours as previously described.^23 T lymphocytes were made quiescent by washing and incubating for 24 hours in RPMI-1640 medium containing 1% fetal calf serum before exposure to cytokines. […] The Mannich base 649641P (NC1153) was generously provided by Dr. Jonathan Dimmock College of Pharmacy, University of Saskatchewan, Saskatoon, Saskatchewan, Canada. All cells were then stimulated with 1 nM recombinant human IL-2 (Hoffman-LaRoche, Basel, Switzerland), IL4 or IL7 (PeproTech), or ovine prolactin (PRL) supplied by the National Hormone and Pituitary Program, National Institute of Diabetes, Digestive, and Kidney Disease (Bethesda, Md.), at 37° C. Cell pellets were frozen at −70° C.
(§2) Proliferation assays. Quiescent human primary T-cells, YT or rat Nb2-11c T-cells (5.0×10^4/well) were plated in flat-bottom, 96-well microtiter plates in 200 μl of quiescent media in the absence or presence of 1 nM IL-2, -4, -7 (PeproTech, Rock Hill, N.J.), or PRL. Next, cells were treated for 16 hours with the Mannich base drug and then pulsed for 4 hours with [^3H]-thymidine (0.5 μCi/200 μl) and harvested onto fiberglass filters. [^3H]-thymidine incorporation was analyzed by liquid scintillation counting as previously described,^23 or using standard techniques that are well known in the art.

Stat5a/b = Stat5a/b DNA binding, EMSA in PHA activated T-cells; type: cell-based, human; conditions: increasing concentrations
Protocol: EMSA. Electrophoretic mobility shift assay (EMSA). Drug or vehicle control (DMSO) treated cells were pelleted by centrifugation (20,000×g for 1 min at 4° C.) and subsequently washed in five volumes of 10 mM HEPES, pH 7.9, 10 mM KCl, 1.5 mM MgCl2, 0.5 mM DTT, […], 5 μg/ml aprotinin, 1 μg/ml pepstatin A and 2 μg/ml leupeptin, centrifuged, then lysed in the same buffer supplemented with 1% NP-40 and incubated for 20 min on ice. The nuclei-containing pellet was resuspended in equal volumes of low salt buffer (10 mM HEPES, 25% glycerol, 1.5 mM MgCl2, 20 mM KCl, 0.5 mM DTT, 0.2 mM EDTA and protease inhibitors) and high salt buffer (low salt buffer containing 800 mM KCl). This fraction was then isolated by centrifugation at 4° C. for 10 min and supernatants saved as nuclear protein extract and stored at −70° C. Gel mobility shift assays were performed to detect Stat5a/b DNA binding activity using a Stat5 DNA binding sequence corresponding to the promoter of the β-casein gene (5′-[…]-3′) or an NF-kB binding element (5′-[…]-3′). Both probes were end-labeled with [^32P]dATP. […]
In FIG. 9A, it can be seen that NC1153 inhibits Jak3 driven transcription factor-Stat5a/b in PHA activated T-cells treated with increasing concentrations of NC1153 in a dose dependent manner as measured via EMSA analysis (upper panel). […]

[2] = tested on: rat T cell line (Nb2-11c); assay: Proliferation of rat Nb2-11c T cells, IL-2 (Jak3) versus PRL (Jak2) stimulated; type: cell-based
Protocol: as §1, §2
The rat T cell line (Nb2-11c) was chosen because it responds to either PRL/Jak2 or IL-2/Jak3 stimulation.
FIG. 14B through FIG. 39B show the chemical formulas of various Mannich base compounds and others (shown as salts) that were screened for ability to inhibit proliferation in prolactin or IL2 stimulated T-cells. […]

[3] = rat, in vivo
Lck = Lck (Homo sapiens, UniProt P06239); assay: Tyrosine phosphorylation of activated Lck in YT cells; type: cell-based; parameters: Cellular extracts were immunoprecipitated with anti-Fyn or anti-Lck antibodies; endogenous in cells; host or cells: YT cells; conditions: 1-100 μM, 2 hours
Lck, sequence (P06239 whole entry): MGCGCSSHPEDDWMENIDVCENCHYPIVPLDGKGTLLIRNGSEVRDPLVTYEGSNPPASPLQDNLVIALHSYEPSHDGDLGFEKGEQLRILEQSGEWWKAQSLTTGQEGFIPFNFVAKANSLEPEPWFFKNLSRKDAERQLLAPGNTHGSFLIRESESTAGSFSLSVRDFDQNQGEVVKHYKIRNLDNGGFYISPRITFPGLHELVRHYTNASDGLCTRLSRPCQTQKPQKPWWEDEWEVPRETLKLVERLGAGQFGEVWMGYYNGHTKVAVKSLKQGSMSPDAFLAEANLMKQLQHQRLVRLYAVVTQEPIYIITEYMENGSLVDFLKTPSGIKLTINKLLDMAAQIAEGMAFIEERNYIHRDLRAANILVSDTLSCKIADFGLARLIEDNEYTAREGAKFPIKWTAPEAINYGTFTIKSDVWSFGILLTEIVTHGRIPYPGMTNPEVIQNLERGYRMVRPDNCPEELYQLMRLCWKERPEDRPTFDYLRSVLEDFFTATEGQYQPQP

`CN(C)CC1CCCCCCCCCC(CN(C)C)C1=O` (mixture of isomers) [649641P (NC1153)] gave an IC50 ([1]; T-cell, 1 nM IL-4, read-out: IC50, IL4 driven cell growth) of about 2500 nM, an IC50 ([1]; T-cell, 1 nM IL-7, read-out: IC50, IL7 driven cell growth) of about 2500 nM and an IC50 ([1]; IL-2 driven T-cell growth, 16 hours drug, [3H]-thymidine, read-out: IC50, disrupting cell growth) of about 2500 nM. For the same compound, the “IL2, IL4 or IL7 driven growth normalized to untreated controls” value ([1]; dose dependent) was “inhibits IL2, IL4 or IL7 driven growth”, the “Stat5a/b DNA binding (EMSA)” value (Stat5a/b) was “inhibits; also recorded: greatly impaired” and the “Stat5a/b DNA binding (EMSA)” value (Stat5a/b; listed as NC1153) was “inhibits”. For the same compound, the “effectiveness for inhibiting Jak3- versus Jak2-dependent proliferation” value ([2]; 1 nM IL-2 vs 1 nM PRL, 0-100 μM, 16 hours) was 3 fold, the “selective inhibition of IL-2/Jak3-dependent versus PRL/Jak2-dependent T-cell proliferation” value ([2]; IL-2 vs PRL stimulated) was “selectively inhibits γc/Jak3-dependent but not PRL/Jak2-dependent cell proliferation” and the “inhibition of cell proliferation in response to IL-2, IL-4 and IL-7” value ([2]; as printed: Nb2-11c cells) was “equally effective”. The HDL [3] was “increased HDL”, the “HDL, LDL, or TG levels” value [3] was “no effect” and the “TG or LDL levels” value [3] was “without changing TG or LDL levels”. For the same compound, the overall toxicity conclusion [3] was “free of nephrotoxic and myelotoxic effects with mild lipotoxicity on high-fat challenge”, the “peripheral blood counts (PBC)” value [3] was “Neither 648641P nor CsA reduced PBC” and the “activity (tyrosine phosphorylation) of Lck” value (Lck) was “no effect; also recorded: does not block the activity; also recorded: did not inhibit”.
